In publication PMC7584652 (Nature Communications, 2020):

Key:
Details in all cases: labelled compound ([5′-α-32P]); 10 mM Tris pH 7.5, 100 mM NaCl, 5 mM MgCl2, room temperature
GuaC = GuaC (Bacillus anthracis, UniProt Q81JJ9)
YjbM (SAS1) = target: T1, YjbM (SAS1) (Bacillus anthracis, UniProt A0A2P0HBB4)
T1 construct: gene BA_1212

RbgA = target: T2, RbgA (Bacillus anthracis, UniProt A0A6L8PZ03)
T2 construct: gene GBAA_3976

PurR = PurR (Bacillus anthracis, UniProt A0AAC8NAH2)

Nc1nc2c(ncn2[C@@H]2O[C@H](COP(=O)(O)O)[C@@H](OP(=O)(O)OP(=O)(O)O)[C@H]2O)c(=O)[nH]1 [pGpp, guanosine-5′-monophosphate-3′-diphosphate]
DRaCALA screen in E. coli overexpression lysate (GuaC): including HprT, Xpt, Gmk, and GuaC, bound both pGpp and (p)ppGpp

Nc1nc2c(ncn2[C@@H]2O[C@H](COP(=O)(O)OP(=O)(O)OP(=O)(O)O)[C@@H](OP(=O)(O)OP(=O)(O)O)[C@H]2O)c(=O)[nH]1 [pppGpp]
DRaCALA screen in E. coli overexpression lysate (YjbM (SAS1)): several proteins bind to pppGpp but not ppGpp, including the small alarmone synthetase YjbM

Nc1nc2c(ncn2[C@@H]2O[C@H](COP(=O)(O)OP(=O)(O)O)[C@@H](OP(=O)(O)OP(=O)(O)O)[C@H]2O)c(=O)[nH]1 [ppGpp]
DRaCALA screen in E. coli overexpression lysate (RbgA): ribosome and translation regulatory GTPases (HflX, Der, Obg, RbgA, TrmE, and Era) | DRaCALA screen in E. coli overexpression lysate (PurR): purine nucleotide synthesis proteins (Hpt1, Xpt, Gmk, GuaC, PurA, and PurR)
